Results taken from patent US9457040B2, “Effective treatment of esophageal adenocarcinoma using triciribine and related compounds” (University of South Florida, priority 2007, dated 2016).

Columns and labels:
PKCα = PKCα (Homo sapiens, UniProt P17252); test: PKCα kinase activity / phospho-PKCα-T638 immunoblot; assay type: cell-based; settings: anti-phospho-PKCα-T638 immunoblot
[1] = cited from earlier work
[2] = system: advanced refractory malignancies; settings: patients; i.v. infusion over fifteen minutes once every three weeks, 25 to 350 mg/m^2; cited from earlier work
advanced solid cancers = settings: patients; i.v. days 1, 8, 15 and 22 of a 42 day cycle, 12 to 96 mg/m^2; cited from earlier work
[3] = system: metastatic colorectal adenocarcinoma; settings: patients; i.v. over 15 minutes 165 or 250 mg/m^2 once a week in three week intervals; cited from earlier work
[4] = system: advanced squamous cell carcinoma of the cervix; settings: cited from earlier work

| Structure (SMILES) | kinase activity of PKCα (PKCα) | solubility relative to the parent drug [1] | therapeutic response [2] | toxicity [2] | toxicity (advanced solid cancers) | clinical usefulness [3] | responses among twenty-one evaluable patients ([4]; 5 day continuous infusion of at least 35 mg/m^2 every six weeks) | activity (authors' conclusion) ([4]; metastatic or recurrent squamous cell cancer of the cervix, this dose and schedule) |
| --- | --- | --- | --- | --- | --- | --- | --- | --- |
| Cn1cc(C2=C(c3cn(CCCSC(=N)N)c4ccccc34)C(=O)NC2=O)c2ccccc21 [Ro 31-8220] | inhibited | – | – | – | – | – | – | – |
| CN1N=C(N)c2cn([C@@H]3O[C@H](COP(=O)(O)O)[C@@H](O)[C@H]3O)c3ncnc1c23 [TCN-P, triciribine phosphate] | – | more soluble than the parent drug | limited therapeutic responses | significant toxicity | unexpected clinical toxicity | lack of clinical usefulness | only two responses were observed | limited activity |
